Results from ChEMBL document CHEMBL3763029, “Heptapeptide ligands against receptor-binding sites of influenza hemagglutinin toward anti-influenza therapy” (Bioorg Med Chem, 2016).
pIC50, pKd: −log10 of the molar value. Active and inactive are the calls of the source. No cut-off for these calls is given here. Peptide text beside a SMILES is read from it. * marks the point of attachment. Biotinyl(3aR,4S,6aS) = O=C1N[C@H]2[C@H](CCCCC(=O)*)SC[C@H]2N1; Biotin = O=C1N[C@H]2[C@H](CS[C@H]2CCCCC(=O)*)N1; Stearoyl = CCCCCCCCCCCCCCCCCC(=O)*

How the values were obtained:
[1] = (§1) Binding affinity to Influenza A virus (A/New Caledonia/20/99 (H1N1)) H1 hemagglutinin after 2 hrs by avidin-biotin-peroxidase complex method; set-up: species or system Influenza A virus (A/New Caledonia/20/1999(H1N1))
[2] = Binding affinity to Influenza A virus (A/Aichi/2/68(H3N2)) H3 hemagglutinin after 2 hrs by NMR method; set-up: species or system Influenza A virus (A/Aichi/2/1968(H3N2))
[3] = (§2) Binding affinity to Influenza A virus (A/Wyoming/03/2003(H3N2)) H3 hemagglutinin after 2 hrs by avidin-biotin-peroxidase complex method
[4] = tested on: Influenza A virus (A/Wyoming/03/2003(H3N2)); assay: as §2
[5] = tested on: Influenza A virus (A/New Caledonia/20/1999(H1N1)); assay: as §1
[6] = tested on: Influenza A virus (A/Wyoming/03/2003(H3N2)); assay: Binding affinity to Influenza A virus (A/Wyoming/03/2003(H3N2)) H3 hemagglutinin at 200 uM after 2 hrs by avidin-biotin-peroxidase complex method in presence of Neu5Ac
Influenza A virus = assay: Antiviral activity against Influenza A virus (A/Puerto Rico/8/34(H1N1)) infected in MDCK cells assessed as inhibition of plaque formation pretreated with virus for 30 mins followed by host cell infection for 30 mins measured after 2 days by crystal violet staining assay; format: functional, organism-based; settings: A/Puerto Rico/8/1934(H1N1)
H3N2 subtype = assay: Antiviral activity against Influenza A virus (A/Aichi/2/68(H3N2)) infected in MDCK cells assessed as inhibition of plaque formation pretreated with virus for 30 mins followed by host cell infection for 30 mins measured after 2 days by crystal violet staining assay; format: functional, organism-based; settings: A/Aichi/2/1968(H3N2)
[7] = tested on: Influenza A virus (A/Wyoming/03/2003(H3N2)); assay: Binding affinity to Influenza A virus (A/Wyoming/03/2003(H3N2)) H3 hemagglutinin at 400 uM after 2 hrs by avidin-biotin-peroxidase complex method relative to 7-1 peptide
[8] = tested on: Influenza A virus (A/Wyoming/03/2003(H3N2)); assay: Binding affinity to Influenza A virus (A/Wyoming/03/2003(H3N2)) H3 hemagglutinin after 2 hrs by avidin-biotin-peroxidase complex method in presence of Neu5Ac
[9] = tested on: Influenza A virus (A/Wyoming/03/2003(H3N2)); assay: Binding affinity to Influenza A virus (A/Wyoming/03/2003(H3N2)) H3 hemagglutinin after 2 hrs by avidin-biotin-peroxidase complex method in presence of glucose

In the case of `CC(=O)N[C@H]1[C@H]([C@H](O)[C@H](O)CO)O[C@@](OC[C@H]2O[C@@H](O[C@H]3[C@H](O)[C@@H](O)[C@H](O)O[C@@H]3CO)[C@H](O)[C@@H](O)[C@H]2O)(C(=O)O)C[C@@H]1O`, the pKd [1] was less than 3.30, the pKd [2] was 2.68 and the pKd [3] was less than 3.30.

In the case of `CC(C)C[C@H](NC(=O)[C@H](C)NC(=O)[C@H](CCCNC(=N)N)NC(=O)[C@@H](NC(=O)[C@@H](N)CC(C)C)C(C)C)C(=O)N[C@@H](C)C(=O)N[C@@H](CC(C)C)C(=O)N[C@@H](CCCCNC(=O)CCCC[C@@H]1SC[C@H]2NC(=O)N[C@@H]12)C(N)=O` (H-LVRALALK(Biotinyl(3aR,4S,6aS))-NH2), the Activity [4] was “inactive”.

With `CC(C)C[C@H](NC(=O)[C@H](C)NC(=O)[C@H](CC(C)C)NC(=O)[C@@H]1CCCN1C(=O)[C@H](CCCNC(=N)N)NC(=O)[C@@H](NC(=O)[C@@H](N)CC(C)C)C(C)C)C(=O)N[C@@H](CCCCNC(=O)CCCC[C@@H]1SC[C@@H]2NC(=O)N[C@@H]21)C(N)=O` (H-LVRPLALK(Biotin)-NH2) the pKd [1] was 4.04, the Activity [5] was “Dose-dependent effect” and the pKd [3] was 3.71. For the same compound, the Activity [4] was “Dose-dependent effect” and the Activity [6] was “inactive”.

In the case of `CC(C)C[C@H](NC(=O)[C@H](C)NC(=O)[C@H](CC(C)C)NC(=O)[C@@H]1CCCN1C(=O)[C@H](CCCNC(=N)N)NC(=O)[C@@H](NC(=O)[C@@H](N)CC(=O)O)C(C)C)C(=O)N[C@@H](CCCCNC(=O)CCCC[C@@H]1SC[C@H]2NC(=O)N[C@@H]12)C(N)=O` (H-DVRPLALK(Biotinyl(3aR,4S,6aS))-NH2), the Activity [4] was “Active”.

`CCCCCCCCCCCCCCCCCC(=O)N[C@@H](CC(C)C)C(=O)N[C@H](C(=O)N[C@@H](CCCNC(=N)N)C(=O)N1CCC[C@H]1C(=O)N[C@@H](CC(C)C)C(=O)N[C@@H](C)C(=O)N[C@@H](CC(C)C)C(N)=O)C(C)C` (Stearoyl-LVRPLAL-NH2) showed a pIC50 (Influenza A virus) of 4.00 and a pIC50 (H3N2 subtype) of 5.19.

For `CC(C)C[C@H](NC(=O)[C@H](C)NC(=O)[C@H](CC(C)C)NC(=O)[C@H](Cc1cnc[nH]1)NC(=O)[C@H](CCCNC(=N)N)NC(=O)[C@@H](NC(=O)[C@@H](N)CC(C)C)C(C)C)C(=O)N[C@@H](CCCCNC(=O)CCCC[C@@H]1SC[C@H]2NC(=O)N[C@@H]12)C(N)=O` (H-LVRHLALK(Biotinyl(3aR,4S,6aS))-NH2), the Activity [4] was “Active”.

Work on `CC(=O)N[C@H]1[C@H]([C@H](O)[C@H](O)CO)O[C@@](O[C@H]2[C@@H](O)[C@@H](CO)O[C@@H](O[C@H]3[C@H](O)[C@@H](O)[C@H](O)O[C@@H]3CO)[C@@H]2O)(C(=O)O)C[C@@H]1O` yielded a pKd [1] of less than 3.70, a pKd [2] of 2.49 and a pKd [3] of less than 3.40.

In the case of `CC(C)C[C@H](NC(=O)[C@H](C)NC(=O)[C@H](CC(C)C)NC(=O)[C@@H]1CCCN1C(=O)[C@H](CCCNC(=N)N)NC(=O)[C@H](CCC(N)=O)NC(=O)[C@@H](N)CC(C)C)C(=O)N[C@@H](CCCCNC(=O)CCCC[C@@H]1SC[C@H]2NC(=O)N[C@@H]12)C(N)=O` (H-LQRPLALK(Biotinyl(3aR,4S,6aS))-NH2), the Activity [4] was “Active”.

For `CC(C)C[C@H](NC(=O)[C@H](CC(=O)O)NC(=O)[C@H](CC(C)C)NC(=O)[C@@H]1CCCN1C(=O)[C@H](CCCNC(=N)N)NC(=O)[C@@H](NC(=O)[C@@H](N)CC(C)C)C(C)C)C(=O)N[C@@H](CCCCNC(=O)CCCC[C@@H]1SC[C@H]2NC(=O)N[C@@H]12)C(N)=O` (H-LVRPLDLK(Biotinyl(3aR,4S,6aS))-NH2), the Activity [4] was “Active”.

For `CC(C)C[C@H](NC(=O)[C@H](C)NC(=O)[C@H](Cc1c[nH]c2ccccc12)NC(=O)[C@@H]1CCCN1C(=O)[C@H](CCCNC(=N)N)NC(=O)[C@@H](NC(=O)[C@@H](N)CC(C)C)C(C)C)C(=O)N[C@@H](CCCCNC(=O)CCCC[C@@H]1SC[C@H]2NC(=O)N[C@@H]12)C(N)=O` (H-LVRPWALK(Biotinyl(3aR,4S,6aS))-NH2), the Activity [4] was “Active”.

Work on `CC(C)C[C@H](NC(=O)[C@H](C)NC(=O)[C@H](CC(C)C)NC(=O)[C@@H]1CCCN1C(=O)[C@H](CC(=O)O)NC(=O)[C@@H](NC(=O)[C@@H](N)CC(C)C)C(C)C)C(=O)N[C@@H](CCCCNC(=O)CCCC[C@@H]1SC[C@H]2NC(=O)N[C@@H]12)C(N)=O` (H-LVDPLALK(Biotinyl(3aR,4S,6aS))-NH2) yielded an Activity [7] of 19%.

With `CC(C)C[C@H](NC(=O)[C@@H]1CCCN1C(=O)[C@H](CCCNC(=N)N)NC(=O)[C@@H](NC(=O)[C@@H](N)CC(C)C)C(C)C)C(=O)N[C@@H](C)C(=O)N[C@@H](C)C(=O)N[C@@H](CCCCNC(=O)CCCC[C@@H]1SC[C@H]2NC(=O)N[C@@H]12)C(N)=O` (H-LVRPLAAK(Biotinyl(3aR,4S,6aS))-NH2) the Activity [8] was “inactive” and the Activity [9] was “Active”.

For `CC(C)C[C@H](NC(=O)[C@H](C)NC(=O)[C@H](C)NC(=O)[C@@H]1CCCN1C(=O)[C@H](CCCNC(=N)N)NC(=O)[C@@H](NC(=O)[C@@H](N)CC(C)C)C(C)C)C(=O)N[C@@H](CCCCNC(=O)CCCC[C@@H]1SC[C@H]2NC(=O)N[C@@H]12)C(N)=O` (H-LVRPAALK(Biotinyl(3aR,4S,6aS))-NH2), the Activity [8] was “inactive” and the Activity [9] was “Active”.

In the case of `CC(C)C[C@H](NC(=O)[C@H](C)NC(=O)[C@H](CC(C)C)NC(=O)[C@@H]1CCCN1C(=O)[C@H](Cc1cnc[nH]1)NC(=O)[C@@H](NC(=O)[C@@H](N)CC(C)C)C(C)C)C(=O)N[C@@H](CCCCNC(=O)CCCC[C@@H]1SC[C@H]2NC(=O)N[C@@H]12)C(N)=O` (H-LVHPLALK(Biotinyl(3aR,4S,6aS))-NH2), the Activity [4] was “Active”.

With `CC(C)C[C@H](NC(=O)[C@H](C)NC(=O)[C@H](CC(C)C)NC(=O)[C@@H]1CCCN1C(=O)[C@H](CCCNC(=N)N)NC(=O)[C@H](C)NC(=O)[C@@H](N)CC(C)C)C(=O)N[C@@H](CCCCNC(=O)CCCC[C@@H]1SC[C@H]2NC(=O)N[C@@H]12)C(N)=O` (H-LARPLALK(Biotinyl(3aR,4S,6aS))-NH2) the Activity [8] was “inactive” and the Activity [9] was “Active”.

Compound `CC(C)C[C@H](NC(=O)CNC(=O)[C@H](CCCNC(=N)N)NC(=O)[C@@H](NC(=O)[C@@H](N)CC(C)C)C(C)C)C(=O)N[C@@H](C)C(=O)N[C@@H](CC(C)C)C(=O)N[C@@H](CCCCNC(=O)CCCC[C@@H]1SC[C@H]2NC(=O)N[C@@H]12)C(N)=O` (H-LVRGLALK(Biotinyl(3aR,4S,6aS))-NH2) has an Activity [7] of 17%.

For `CC(C)C[C@H](NC(=O)[C@H](C)NC(=O)[C@H](CC(C)C)NC(=O)[C@@H]1CCCN1C(=O)[C@H](CCCNC(=N)N)NC(=O)[C@@H](NC(=O)[C@H](C)N)C(C)C)C(=O)N[C@@H](CCCCNC(=O)CCCC[C@@H]1SC[C@H]2NC(=O)N[C@@H]12)C(N)=O` (H-AVRPLALK(Biotinyl(3aR,4S,6aS))-NH2), the Activity [8] was “inactive” and the Activity [9] was “Active”.

In the case of `CC(C)C[C@H](NC(=O)[C@H](C)NC(=O)[C@H](CC(C)C)NC(=O)[C@@H]1CCCN1C(=O)[C@H](C)NC(=O)[C@@H](NC(=O)[C@@H](N)CC(C)C)C(C)C)C(=O)N[C@@H](CCCCNC(=O)CCCC[C@@H]1SC[C@H]2NC(=O)N[C@@H]12)C(N)=O` (H-LVAPLALK(Biotinyl(3aR,4S,6aS))-NH2), the Activity [4] was “inactive”.
